According to patent US7309584B2, “Mutations of the MDR1 P-glycoprotein that improves its ability to confer resistance to chemotherapeutic drugs” (The Board of Trustees of the University of Illinois, priority 2000, dated 2007):

How the values were obtained:
NIH 3T3 cells [1] = test: clonogenic assays for drug resistance of NIH 3T3 cells transduced with MDR1 constructs; format: cell-based; details: for colchicine resistance relative to the LMDR1-G185V construct: FIG. 5C, 6C; for doxorubicin resistance relative to the LMDR1-G185V construct: FIG. 5B, 6B; for taxol resistance relative to the LMDR1-G185V construct: FIG. 6E; for vinblastine resistance relative to the LMDR1-G185V construct: FIG. 6D; for colchicine resistance relative to cells transduced with wild-type MDR1: FIG. 4B; for doxorubicin resistance relative to cells transduced with wild-type MDR1: FIG. 4C; for etoposide resistance relative to cells transduced with wild-type MDR1: FIG. 4A; for taxol resistance relative to cells transduced with wild-type MDR1: FIG. 4E; for vinblastine resistance relative to cells transduced with wild-type MDR1: FIG. 4D; for etoposide resistance relative to the LMDR1-G185V construct / fold increase in etoposide resistance relative to the LMDR1-G185V construct: FIG. 5A; for etoposide resistance relative to the LMDR1-G185V construct: 6A; for fold increase in doxorubicin resistance relative to the LMDR1-G185V construct: transduced NIH 3T3 cells, Table II; for fold increase in etoposide resistance relative to the LMDR1-G185V construct: transduced NIH 3T3 cells sorted for similar P-glycoprotein levels
From the text: FIGS. 4A through 4E illustrate the results of clonogenic assays for resistance to etoposide (panel A), colchicine (panel B), doxorubicin (panel C), vinblastine (panel D), and taxol (panel E) for NIH 3T3 cells transduced with LXSN (closed squares), wild-type MDR1 (closed circles), MDR1-G185V (open circles), MDR1-I186N (closed triangles), or MDR1-G185V/I186N (open triangles);
FIGS. 5A through 5C illustrate the results of clonogenic assays for resistance to etoposide (panel A), doxorubicin (panel B), and colchicine (panel C) for NIH 3T3 cells transduced with LMDR1-G185V (open circles), LMDR1-G185V-EK2 (closed triangles), LMDR1-G185V-EK3 (open triangles), or LMDR1-G185V-EK5 (closed diamonds);
FIGS. 6A through 6E illustrate the results of clonogenic assays for resistance to etoposide (panel A), doxorubicin (panel B), colchicine (panel C), vinblastine (panel D), and taxol (panel E) for NIH 3T3 cells transduced with LMDR1-G185V (closed circles), LMDR1-G185V-L56F (open circles), LMDR1-G185V-I190F/M197F (closed triangles), LMDR1-G185V-G763W (open triangles), or LMDR1-G185V-G844Q (closed squares).
Retroviral vectors carrying LXSN (negative control carrying the neomycin/G418 resistance gene), wild-type MDR1, MDR1-G185V, MDR1-I186N, or MDR1-G185V/I186N were individually transduced into NIH 3T3 cells. Populations transduced with MDR1 containing vectors were stained with the P-glycoprotein-specific monoclonal antibody MRK16, and then sorted to obtain cell populations expressing a similar level of P-glycoprotein.
NIH 3T3 cells were transduced with the LMDR1-G185V, LMDR1-G185V-EK2, LMDR1-G185V-EK3, or LMDR1-G185V-EK5 constructs, and the transduced cells were then sorted by FACS to generate pure populations of P-glycoprotein positive cells having similar levels of P-glycoprotein. Following sorting, the cell populations were analyzed for their drug resistance.
To investigate the mutants 8-A4, 5-C3, 2-B2, and 2-B1, having mutations in one of the transmembrane domains, MDR1-G185V cDNA was modified by site-directed mutagenesis to create the following constructs: LMDR1-G185V-L56F (leucine to phenylalanine mutation at residue 56), LMDR1-G185V-I190F/M197F (isoleucine to phenylalanine mutation at amino acid residue 190 and methionine to phenylalanine mutation at residue 197), LMDR1-G185V-G763W (glycine to tryptophan mutation at residue 763), and LMDR1-G185V-G844Q (glycine to glutamine mutation at residue 844). NIH 3T3 cells were transduced with either the LMDR1-G185V construct or one of the transmembrane mutant constructs, and the transduced cells were then sorted by FACS to generate pure populations of P-glycoprotein positive cells having similar levels of P-glycoprotein. Following sorting, the cell populations were analyzed for their drug resistance.

NIH 3T3 cells [2] = test: etoposide resistance / survival in etoposide of NIH 3T3 cells transduced with rescued MDR1-G185V mutants; format: cell-based; details: mutant fragments recloned into LMDR1-G185V, similar MDR1 expression
Experimental: Mutant MDR1-G185V cDNA isolated from eleven clonal lines was tested for the ability to confer elevated resistance to etoposide as compared to unmutagenized MDR1-G185V. Fragments of MDR1 cDNA containing mutations were first excised from the MDR1 cDNA using restriction endonucleases that recognize appropriate sites flanking the mutation, and then the fragments were recloned into the parental LMDR1-G185V vector. Naïve NIH 3T3 cells were individually transduced with the eleven LMDR1-G185V mutants, wild-type LMDR1-G185V, or LXSN, and then analyzed by FACS for MDR1 expression. […] The cell populations were then assayed for etoposide resistance.
An array selection strategy was employed to isolate additional MDR1 mutants conferring hyper-resistance to etoposide from the cells transduced with Mut II and selected in 10 μg/mL etoposide, as described in Example 1 (this selection scheme is shown in FIG. 1C and in FIG. 2). The 131 clonal lines from Example 1 were divided into four pools. MDR1 cDNA was recovered by PCR from each of the four pools, recloned back into LXSN, and used to transform bacterial cells to generate four MDR1 mutant libraries. These libraries were plated; individual bacterial colonies were picked and tested by array analysis. […]

Row | Substance | colchicine resistance relative to the LMDR1-G185V construct (NIH 3T3 cells [1]) | doxorubicin resistance relative to the LMDR1-G185V construct (NIH 3T3 cells [1]) | taxol resistance relative to the LMDR1-G185V construct (NIH 3T3 cells [1]) | vinblastine resistance relative to the LMDR1-G185V construct (NIH 3T3 cells [1]) | colchicine resistance relative to cells transduced with wild-type MDR1 (NIH 3T3 cells [1]) | doxorubicin resistance relative to cells transduced with wild-type MDR1 (NIH 3T3 cells [1]) | etoposide resistance relative to cells transduced with wild-type MDR1 (NIH 3T3 cells [1]) | also measured
1 | L56F: MDR1-G185V construct with leucine to phenylalanine mutation at residue 56 | increased colchicine resistance | very strong resistance to doxorubicin | decreased taxol resistance | decreased vinblastine resistance | – | – | – | –
2 | G763W: MDR1-G185V construct with glycine to tryptophan mutation at residue 763 | – | moderate increases in doxorubicin resistance | no effect on taxol resistance | only a moderate increase in vinblastine resistance | – | – | – | –
3 | MDR1-G185V: human P-glycoprotein having a glycine to valine substitution at position 185 (SEQ ID NO: 3) [reference compound] | – | – | – | – | an even higher level of colchicine resistance | doxorubicin resistance was enhanced | increase etoposide resistance | taxol resistance relative to cells transduced with wild-type MDR1 (NIH 3T3 cells [1]): decrease resistance levels to both of these drugs; vinblastine resistance relative to cells transduced with wild-type MDR1 (NIH 3T3 cells [1]): decrease resistance levels to both of these drugs
4 | I190F/M197F: MDR1-G185V construct with isoleucine to phenylalanine at residue 190 and methionine to phenylalanine at residue 197 | – | moderate increases in doxorubicin resistance | significant increase in taxol resistance | increased vinblastine resistance | – | – | – | etoposide resistance relative to the LMDR1-G185V construct (NIH 3T3 cells [1]): the greatest resistance
5 | LMDR1-G185V-EK2: MDR1-G185V construct with glutamic acid to lysine substitutions at positions 634 and 636 | decrease colchicine resistance | increase doxorubicin resistance | – | – | – | – | – | fold increase in doxorubicin resistance relative to the LMDR1-G185V construct (NIH 3T3 cells [1]): almost two-fold increase; fold increase in etoposide resistance relative to the LMDR1-G185V construct (NIH 3T3 cells [1]): 1.4 fold
6 | LMDR1-G185V-EK5: MDR1-G185V construct with glutamic acid to lysine substitutions at positions 634, 636, 643, 647 and 652 | the greatest decrease in colchicine resistance | – | – | – | – | – | – | etoposide resistance relative to the LMDR1-G185V construct (NIH 3T3 cells [1]): the effect of the double and triple lysine mutants was not additive
7 | MDR1-G185V/I186N: mutant human P-glycoprotein having both G185V and I186N substitutions | – | – | – | – | indistinguishable from that obtained for cells transduced with the MDR1-G185V construct | an even higher level of doxorubicin resistance | higher level of etoposide resistance than cells transduced with either the MDR1-G185V or MDR1-I186N constructs | –
8 | LMDR1-G185V-EK3: MDR1-G185V construct with glutamic acid to lysine substitutions at positions 643, 647, and 652 | decrease colchicine resistance | increase doxorubicin resistance | – | – | – | – | – | fold increase in doxorubicin resistance relative to the LMDR1-G185V construct (NIH 3T3 cells [1]): nearly a four-fold increase; fold increase in etoposide resistance relative to the LMDR1-G185V construct (NIH 3T3 cells [1]): 1.6 fold
9 | MDR1-I186N: mutant human P-glycoprotein having an asparagine substitution at position 186 (SEQ ID NO: 4) | – | – | – | – | increase colchicine resistance | doxorubicin resistance was enhanced | increase etoposide resistance to a similar degree as the G185V substitution | taxol resistance relative to cells transduced with wild-type MDR1 (NIH 3T3 cells [1]): increase resistance to both of these drugs; vinblastine resistance relative to cells transduced with wild-type MDR1 (NIH 3T3 cells [1]): increase resistance to both of these drugs; etoposide resistance as compared to unmutagenized MDR1-G185V (NIH 3T3 cells [2]): increased resistance to etoposide
